Results published in patent EP4251148B1, “HISTAMINE H3 RECEPTOR ANTAGONISTS/INVERSE AGONISTS FOR THE TREATMENT OF AUTISM SPECTRUM DISORDER” (Richter Gedeon Nyrt., priority 2020, dated 2022).

Key:
[1] = molecular target: T1, H3 receptor (Rattus norvegicus, UniProt Q9QYN8); experiment: imetit-induced dipsogenia test; format: in vivo, Harlan Wistar rats; details: rats, test compound p.o. 30 min before imetit 3 mg/kg sc.; reversal of water intake
T1 construct: from tissue; host or cells: whole living rat (central H3 receptors); animals from Janvier Elevage, France
T1 sequence (Q9QYN8 whole entry): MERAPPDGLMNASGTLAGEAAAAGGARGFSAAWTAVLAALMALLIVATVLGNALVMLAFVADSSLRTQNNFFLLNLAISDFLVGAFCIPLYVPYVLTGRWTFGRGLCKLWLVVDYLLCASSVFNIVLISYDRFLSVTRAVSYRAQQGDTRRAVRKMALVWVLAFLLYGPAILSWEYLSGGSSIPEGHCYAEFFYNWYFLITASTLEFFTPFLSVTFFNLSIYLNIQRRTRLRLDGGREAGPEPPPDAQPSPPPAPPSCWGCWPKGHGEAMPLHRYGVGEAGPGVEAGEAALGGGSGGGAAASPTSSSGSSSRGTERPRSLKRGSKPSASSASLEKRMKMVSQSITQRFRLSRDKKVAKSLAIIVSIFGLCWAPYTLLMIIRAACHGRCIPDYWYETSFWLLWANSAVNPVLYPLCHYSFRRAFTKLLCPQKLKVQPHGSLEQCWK
Excerpt: Brain penetrant histamine H3 receptor agonists such as R-α-methylhistamine and imetit cause an acute increase in water intake in rodents (Galici et al., 2009; Barbier et al., 2007; Clapham and Kilpatrick, 1993; Garbarg et al., 1993). This dipsogenic effect is specific to H3 receptor activation as it can be antagonized selectively by centrally acting H3 antagonists (e.g., thioperamide or clobenpropit) and not by H1 or H2 […] such as mepyramide or loxtidine, respectively (Fox et al., 2002; Clapham and Kilpatrick, 1992). Therefore, the inhibition of H3 receptor-mediated dipsogenia can be used as a central pharmacodynamic measure of in vivo H3 receptor function following peripheral administration of antagonist/inverse agonist compounds (Raddatz et al., 2012; Medhurst et al., 2007; Fox et al., 2005).
The protocol has been derived from Clapham and Kilpatrick (1992) with modifications. Group-housed adult male Harlan Wistar rats (Janvier Elevage, France) (340-500 g at the time of testing) were used as experimental animals. Rats were repeatedly used for testing for a maximum of four to five times with one week of wash-out period between testing days. Before commencing drug-testing sessions, animals were first habituated to the test procedure without receiving any drug treatment. On habituation days animals were administered 5 mL/kg distilled water p.o. and 30 min later 1 mL/kg physiological saline was injected sc., while drinking water was withdrawn from the home-cages. After a further 30 min, rats were isolated in test cages, where they had access to tap water, but not to chow. Water consumption was measured 30 min later. Rats that had drunken at least 0.2 g water during this period were randomized into treatment groups. On experimental days animals were administered the test compound or vehicle p.o. and 30 min later 3 mg/kg of the H3 receptor agonist imetit was injected sc. Investigational compounds were given in a volume of 5 mL/kg. Imetit dihydrobromide (Tocris, UK) was dissolved in physiological saline and administered in a volume of 1 mL/kg. Directly after treatment with imetit, drinking water was withdrawn from the home-cages. After an additional 30 min, rats were isolated to test cages, where they had access to tap water, but not to chow. Water consumption was measured after a free drinking period of 10 min.
Means ± S.E. of water intake (in grams) were calculated for each group. Significance of drug effect was determined by ANOVA followed by the post hoc Duncan-test. Significance was considered at the p<0.05 level. The percental reversal of imetit-induced water intake was calculated from the group means using the formula as follows, percental reversal of dipsogenia equals 1-((IME-DRUG)/(IME-VEH))·100, where IME is water intake of the p.o. vehicle plus imetit group, VEH is water intake of p.o. vehicle plus sc. vehicle group, and DRUG is water intake of p.o. test compound plus sc. […] group. Percental reversal was plotted for each dose and an ED50 value was calculated from the fitted curve (reversal values greater than 100% were taken into account as 100% reversal) based on linear regression.

[2] = tested on: prenatally valproate treated rats; experiment: tactile sensitivity measurement with von Frey filaments in the prenatal valproate model; format: in vivo, Wistar rats; details: p.o., 60 min after treatment, 18-day-old rats
Excerpt: The prenatal valproate (VPA) model has excellent construct and face validity, therefore it is a widely accepted disease model of ASD. With respect to face validity, prenatal VPA exposure may lead to socio-communicational defects, excessive repetitive behaviors and increased sensitivity of various modalities (e.g., touch). […] Compounds that produced efficacy signals in ASD subjects comprise eg., oxytocin (Andari et al., PNAS 2010, 107:4389-4394).
In this method, time-mated female Wistar rats are administered a single dose of VPA (300 mg/kg, i.p.) on gestational day 12.5. Offspring are housed according to standard laboratory conditions until time of behavioral testing. Animals are housed in groups of 4 in conventional cages and maintained at 22-24°C on a standard 12-hour light/dark cycle, with food and water available ad libitum. […]
During the measurement with von Frey filaments, 18-day-old rats were placed separately in small cages (dimensions: 7 x 7 x 9 cm) with mesh floors. […] First, a baseline sensitivity value was determined, and animals were randomized into treatment groups based on this baseline. Sixty min after p.o. treatment sensitivity was measured again. A 50% sensitivity threshold was calculated based on the value of the last measured fiber thickness and the application pattern of the various filament thicknesses. […]

[3] = tested on: BALB/C mice; experiment: three-chamber assay, social novelty session, BALB/C mouse model of ASD; format: in vivo; details: 10 mg/kg (top dose); ** p<0.01 vs. familiar
Excerpt: The BALB/c mouse is a low-sociability, inbred line that is accepted as an idiopathic model of ASD (Brodkin, 2007; Burket et al., 2020; Ellegood, 2015; Jacome et al., 2011). Although the precise background of behavior is not known, the line carries a loss of function single nucleotide polymorphism in the tryptophane hydroxylase gene causing a 50% reduction in enzyme function (Russo et al., 2018). […] This model also has some predictive validity as some compounds that produced efficacy signals in humans have also been active in BALB/c mice such as D-cycloserine (Deutsch et al., 2012) or oxytocin (Teng et al., 2013).
The three-chamber assay was performed in an 8-channel LABORAS™ sociability system (Metris b.v., Hoofdorp, The Netherlands). […] Consequently, movements of target mice were not recorded. Just like in the classical LABORASTM set-up (Van de Weerd et al., 2001; Quinn et al., 2003), mechanical vibration generated by movement of the animals was transformed to electrical signals that were analyzed and the trajectory of the animals was determined. […]
During the behavioral assays, test mice were habituated first to the center compartment of the three-chamber apparatus with the guillotine doors closed for 2 min. […] During this test session the time spent in the center chamber as well as with direct contact or no contact on the social versus non-social side was recorded. […]

[4] = tested on: monoamine oxidase A; details: human and rat enzyme; cited from earlier work
[5] = tested on: prenatal valproate model of ASD in mice; details: 3 mg/kg intraperitoneally; cited from earlier work
[6] = 3 mg/kg intraperitoneally; cited from earlier work
[7] = tested on: monoamine oxidase B; details: human and rat enzyme; slight preference for monoamine oxidase B; cited from earlier work

Structure (SMILES) | imetit-induced dipsogenia ED50 [1] | further results
C[C@@H]1CCCN1CCc1cc2cc(-c3ccc(C#N)cc3)ccc2o1 [ABT-239, 4-(2-{2-[(2R)-2-Methylpyrrolidin-1-yl]ethyl}-benzofuran-5-vl)benzonitrile] | 0.26 mg/kg p.o. | 
CNC(=O)c1ccc(Oc2ccc3c(c2)CCN(C2CCC2)CC3)nc1 [GSK-189254, 6-[(3-cyclobutyl-1,2,4,5-tetrahydro-3-benzazepin-7-yl)oxy]-N-methylpyridine-3-carboxamide] | 0.14 mg/kg p.o. | tactile hypersensitivity (threshold level of paw withdrawal to von Frey filaments) ([2]; 0.1 mg/kg (middle dose), + p<0.05 vs. VPA, inverted U-shaped dose-response curve): reversed this tactile hypersensitivity
Cn1nc(N2CCC(OC(=O)N3CCN(C4CCC4)CC3)CC2)ccc1=O [LML-134, 1-(1-methyl-6-oxo-1,6-dihydropyridazin-3-yl)piperidin-4-yl 4-cyclobutylpiperazine-1-carboxylate] | < 1 mg/kg p.o. | social novelty (time spent with investigation of the novel animal) [3]: improve social novelty; tactile hypersensitivity (threshold level of paw withdrawal to von Frey filaments) ([2]; 10 mg/kg (top dose), ++ p<0.01 vs. VPA): reversed this tactile hypersensitivity
O=C(c1ccc(OCCCc2cnc[nH]2)cc1)C1CC1 [ciproxifan] |  | inhibition of monoamine oxidase A [4]: micromolar concentration range; social deficits and excessive repetitive behavior [5]: improved social deficits and excessive repetitive behavior; plasma exposures [6]: micromolar range; inhibition of monoamine oxidase B [7]: micromolar concentration range

Second part, led by results:

imetit-induced dipsogenia ED50 [1] | Structure (SMILES) | further results
< 1 mg/kg p.o. | O=C(CN1CCOCC1)Nc1ccc(OC2CCN(C3CCC3)CC2)cc1 [samelisant, N-{4-[(1-cyclobutylpiperidin-4-yl)oxy]phenyl}-2-(morpholin-4-yl)acetamide] | 
< 0.3 mg/kg p.o. | O=C(c1ccc(CN2CCOCC2)cc1)N1CCN(C2CC2)CC1 [bavisant, (4-cyclopropylpiperazin-1-yl)-[4-(morpholin-4-ylmethyl)phenyl]methanone] | 
0.78 mg/kg p.o. | CCNC(=O)C1CC(F)(c2ccc(CN3CCCC3)c(F)c2)C1 (stereo not drawn) [PF-03654746, trans-N-Ethyl-3-fluoro-3-[3-fluoro-4-(1pyrrolidinylmethyl)phenyl]cyclobutanecarboxamide] | 
11 mg/kg p.o. | Clc1ccc(CCCOCCCN2CCCCC2)cc1 [pitolisant, 1-[3-[3-(4-chlorophenyl)propoxy]propyl]piperidine] | 
